Source: article PMC11885506, “Evaluation of a non-animal toolbox informed by adverse outcome pathways for human inhalation safety” (Frontiers in Toxicology, 2025)
“Also recorded” adds a separate entry of the source. Counter-ions that a name gives are not always drawn.

Assays:
[1] = tested on: EpiAlveolar™ tissues; test: Cytokine and chemokine measurements (Luminex), EpiAlveolar model, Laboratory 1; type: cell-based, human; conditions: for MinPoD: EpiAlveolar™ model Laboratory-1, biomarker ICAM-1
Source text: (§1) EpiAlveolar™ system was obtained from MatTek Corporation (Ashland, MA, United States, cat. no. ALV-100-FT-MAC, ALV-100-FT-MAC-PE12). According to the supplier, the tissue systems were derived from primary human alveolar epithelial cells and primary pulmonary fibroblasts, both from a same healthy donor, and pulmonary endothelial cells from another healthy donor, and THP-1 cell line derived macrophages. These tissues were differentiated by the manufacturer prior to shipping to the testing facilities. […] TEER was measured and only systems with confirmed quality of the tight junction barrier (>300 Ω.cm^2) and with approved morphological inspection were used in the experiments.
(§2) Vehicle control groups were also tested in parallel. Except for Doxorubicin (which underwent a 6-day chemical exposure + 6-day without exposure), exposures were conducted daily, on 12 consecutive days with different concentrations, through aerosol, apical or basolateral liquid exposure methods (Table 2). […] Each of the insert holders of the instrument base module was filled with Hanks’ Balanced Salt solution (HBSS) or PBS prior to placing the tissue inserts. Then, each test item solution/suspension was placed into the nebulizer reservoir for aerosol material exposure. The nebulizer was activated until the material solution/suspension was consumed and discharged into the main exposure chamber and allowed to fully gravity deposit out of the Cloud 12 (determined using a QCM). After exposure, the tissues were placed back into their multi-well culture plates containing the same medium, a further aliquot of media was added apically (20 µL for Akemi, 75 µL for all others except LPS) and returned to incubator until next exposure. Media used during the 6- or 12-day experimental period was prepared without Supplement X by MatTek. In medium exposure, the apical or basolateral liquid of each tissue was removed and replaced with each test item medium solution/suspension and returned to the incubator until the next exposure. After the beginning of the exposure cycles, tissues were only re-fed with new culture medium every 3-4 days.
In Laboratory 1, basal media samples collected from the tissues were collected and stored at ≤ −60°C until analysis. For cytokine/chemokine measurements, 17-Plex, duplex and single-plex analyte detection panels were run on the samples using Human Luminex™ Multiplex Immunoassay kits (R&D Systems). The analytes quantified were TNF-α, IL-6, MMP-9, MMP-3, MMP-1, MMP-2, CXCL10, CCL2, IFN-γ, IL-1ra, CCL7, IL-1a, CCL26, CXCL9, VCAM-1, ICAM-1, and CXCL11 in a 17-plex assay; whereas IL-8 and Serpin E1 in a duplex assay and TGF-β1 in a single-plex assay.

[2] = tested on: EpiAlveolar™ tissues; test: Cytokine and chemokine measurements (Luminex), EpiAlveolar model, Laboratory 2; type: cell-based, human; conditions: for MinPoD: EpiAlveolar™ model Laboratory-2
Source text: as §1, §2
In Laboratory 2, apical culture media samples of the tissues were collected, stored at −80°C until shipment, in dry ice with temperature monitor control, to Unilever SERS, where the analyses were performed. Upon receipt, samples were again stored in the −80°C until the analysis using Human Luminex® Discovery Assay kits (R&D Systems). The same readouts investigated for MucilAir™-HF tissue samples were quantified in these samples.

[3] = tested on: EpiAlveolar™ tissues; test: High-throughput transcriptomics (RNA-seq, PLIER latent variables), EpiAlveolar model, Laboratory 2; type: cell-based, human; conditions: Transcriptomics, biomarker 30
[4] = tested on: EpiAlveolar™ model; test: Bioactivity exposure ratio (BER): lowest in vitro PoD of EpiAlveolar readouts / lower respiratory tract exposure estimate or Cmax; design: species or system human; conditions: Plasma
Protocol: (§4) Concentration and time-dependent changes in the bioactivity readout data were analyzed using a nonlinear state space model, based on the work of [Svensson and Schön (2017)]. […] All bioactivity readouts were included in the analysis (where available), i.e., measurements for tissue integrity loss (TEER) and functionality (MCC, CBF, and mucin secretion), cytokine/chemokine secretion, and the transcriptional LV values obtained using PLIER. The datasets were grouped so that a single state space model was used to capture all the responses (across time, concentration, and test material) for a single readout obtained within a particular study (laboratory/tissue model). Data were transformed to the log base 10 scale and normalized using z-scores, so that for a given readout Ytij from a laboratory/tissue model, the corresponding normalized value was given by y^tij=⁡log⁡10(Ytij)−μ)/σ . Here, the indexes i,j,t correspond to the different test materials, concentrations and timepoints, μ and σ are the sample mean and standard deviation of the control readout values obtained for the first timepoint. All measurement were then scaled so that the maximum median value across different replicates was one for all timepoints, readouts and test materials within a given laboratory/tissue model.
The model consists of state variables xti,j , response variables ytij and the concentrations of material c^i,j . The response variables yti,j represent the normalized (see below) readout values at timepoint t for material exposure i,j . The mean of the response variable is given by xti,j , so that yti,j∼xti,j+et , where et represents random fluctuations in the readout values, due to observational noise, which are taken to be normally distributed. Dynamical changes in state values are given by xti,j=fxt−1i,j,cti,j+vt . Here, fxt−1i,j,c^i,j is a non-linear function that represents interactions between different state variables and the perturbation caused by the test material at a given exposure at concentration c^i,j, and vt represents random fluctuations in state dynamics (which are also normally distributed). Following [Svensson and Schön (2017)], the nonlinear terms are based on an approximation to Gaussian processes, which are obtained using a basis function expansion-based approach. Inference of the model parameters was performed in the framework of Bayesian inference, wherein random draws of the posterior distribution were obtained using Sequential Monte Carlo (SMC), see [Svensson and Schön (2017)] and [Chopin and Papaspiliopoulos (2020)]. For each state space model representing a particular laboratory/readout dataset, SMC simulation was run for three chains at 5,000 iterations each, and first 1,000 iterations were discarded from the final posterior samples. The Rhat convergence diagnostic (Rhat < 1.1) was used to ensure the simulations had converged.
The state space model and posterior model parameter samples were then used to construct posterior predictive distributions of the response of each readout to a given test material for a given concentration and timepoint (see Figure 4). The posterior predictive distributions were used to estimate various statistics on the readout responses (median, 95% credible range etc.), PoDs, Concentration Dependency Scores (CDS) and two Effect Scores (increase and decrease). PoDs were defined as the concentration at which the mean response to a test material exceeded the 95% credible range of control for each timepoint (otherwise the mean response remains within the range of control). PoDs distribution for each timepoint, test material and readout, from which different statistical measures (e.g., the median, 95% credible range etc.) were calculated. The CDS was designed to provide confidence metric in whether an effect in the data was truly concentration dependent.

[5] = tested on: patients; design: method as in Budin et al., 2022; conditions: ref Budin et al., 2022; cited from earlier work
[6] = cited from earlier work
[7] = tested on: EpiAlveolar™ tissues; test: Histology and immunohistochemistry, EpiAlveolar model, Laboratory 2; conditions: Laboratory 2, 12-day period
Protocol: To evaluate the quality of EpiAlveolar™ tissues over the 12-day experimental period, histological and immunohistochemistry assessments for detection of pan-cytokeratin, vimentin, aquaporin 5, pro-surfactant C, CD68, caspase-3, and/or αSMA were performed by Laboratories 1 and 2.
Tissues were kept in 10% phosphate buffered formalin at 4°C for up to 48 h. Samples were then fixed in 70% ethanol and two strips of membrane were trimmed from each sample, processed, and paraffin-embedded to be cut at 5 µm thick sections and mounted to glass slides. The slides were then dewaxed in xylene, hydrated using graded industrial methylated spirit (70-100%) and stained with H&E for light microscope analysis.
For immunohistochemistry analysis, tissue sections-containing microscope slides were obtained and processed using a Discovery Ultra Staining System (Roche), according to manufacturer’s instructions, except for anti-CD68 staining that was manually performed. The slides were incubated at 60°C for 8 min and then deparaffinized at 69°C for 24 min. After that, slides were incubated with inhibitor CM or peroxidase blocking solution (for anti-CD68 staining) for 8 min at room temperature. The slides were then incubated at room temperature with the following primary monoclonal antibodies, following manufacturer’s instructions: anti-α smooth muscle actin (αSMA) at 1:500 (Leica Microsystems Ltd), anti-CD68 at 1:3000 for macrophages (11192-T24, Sino Biological), anti-pro-surfactant C protein at 1:1000 (AB3786, Sigma-Aldrich), anti-caspase-3 at 1:10000 (AB4051, Abcam), anti-aquaporin 5 (31661, Invitrogen), anti-pan-cytokeratin for epithelial cells (760-2595, Roche), and anti-vimentin for mesenchymal cells (790-2917, Roche). […]
A board-certified pathologist evaluated the changes (epithelial thinning, separation/detachment areas, necrosis, collagen, and presence of apoptotic cells, myofibroblasts, and type II pneumocytes) using a semi-quantitative scoring system (Table 2).

[8] = tested on: MucilAir™-HF tissues; test: Mucin-5AC (Muc5AC) immunohistochemistry, goblet cells, MucilAir-HF model; type: cell-based, human; conditions: for Increase in cells expressing Muc5AC protein: 30 min/day
Protocol: (§3) Tissues were handled as recommended by manufacturer’s instruction.
The presence of goblet cells was assessed through immunohistochemistry analysis for mucin-5AC protein (Muc5AC) detection. IL-13 and cytomix were used as positive controls (see item 2.5.2 for additional details). On last day of experiment (day 12), cultures (n = 3 tissues/group) were rinsed in PBS and fixed by immersion in 4% formaldehyde for 20 min. Fixed tissues were embedded into paraffin, sectioned, and processed for staining on paraffin sections. The immunostaining of the sections was performed with the Benchmark automated platform (Ventana-Roche, Hoffmann-La Roche Ltd, Basel, Switzerland) and the Autostainer Link 48 (Agilent, Santa Clara, CA. United States) with the detection kit Ultraview DAB (DAB chromogeny, Hoffmann-La Roche Ltd). Sections were pre-treated using heat mediated antigen retrieval with sodium citrate buffer, pH 6, for 20 min. The section was then incubated with recombinant anti-mucin 5AC antibody (ab3649, Abcam) for 1 h at room temperature, followed by biotinylated secondary antibody (Dako) and HRP detection (HRP conjugated ABC system, Vector Laboratories), according to manufacturer’s instruction. The section was then counterstained with hematoxylin (Sigma-Aldrich) and mounted with DPX, a synthetic non-aqueous mounting medium for microscopy. Digital images of the slides were then acquired, and quantitative image analysis performed using Image Pro Plus 6.2 (Media Cybernetics) to quantify the goblet cells on a section. The whole images of stained sections were scanned, and an average 15 images/section were analysed. The results are the ratio between the mucin 5AC stained area and the total surface area of the epithelium on the section.

[9] = tested on: MucilAir™-HF tissues; test: Mucin secretion measurement (enzyme-linked lectin assay), MucilAir-HF model; type: cell-based, human
Source text: as §3
Mucin production was quantified using an enzyme-linked lectin assay, following a protocol previously published ([Rossner et al., 2019]).

[10] = tested on: MucilAir™-HF model; test: Bioactivity exposure ratio (BER): lowest in vitro PoD of MucilAir-HF readouts / upper respiratory tract exposure estimate
Protocol: as §4
The model consists of state variables xti,j , response variables ytij and the concentrations of material c^i,j . The response variables yti,j represent the normalized (see below) readout values at timepoint t for material exposure i,j . The mean of the response variable is given by xti,j , so that yti,j∼xti,j+et , where et represents random fluctuations in the readout values, due to observational noise, which are taken to be normally distributed. Dynamical changes in state values are given by xti,j=fxt−1i,j,cti,j+vt . […] For each state space model representing a particular laboratory/readout dataset, SMC simulation was run for three chains at 5,000 iterations each, and first 1,000 iterations were discarded from the final posterior samples. […]

[11] = tested on: MucilAir™-HF tissues; test: Cytokine and chemokine measurements (Luminex), MucilAir-HF model; type: cell-based, human; conditions: MucilAir-HF, 30 min/day exposure
Protocol: as §3
Basolateral medium samples of the tissue cultures were collected and stored at −80°C until analysis. The following cytokines/chemokines were quantified using customized Human Luminex® Discovery Assay kits (R&D Systems): chemokine (C-C motif) ligand (CCL) 2, CCL7, CCL26, C-X-C motif chemokine ligand (CXCL) 10, CXCL11, intercellular adhesion molecule-1 (ICAM-1), IL-1α, IL-6, IL-8, matrix metalloproteinase (MMP)-1, MMP-2, MMP-3, MMP-7, MMP-9, osteopontin, interferon (IFN)-γ, IL-1 receptor antagonist (IL-1Ra), urokinase-type plasminogen activator receptor (uPAR), tumour necrosis factor (TNF)-α, urokinase (uPA), serpin E1, tissue inhibitor of metalloproteinase 1 (TIMP-1), and TGF-β1. Samples were measured in technical triplicates according to the manufacturer’s recommendation using a Luminex Bio-Plex® 200 RUO System ([…]).

[12] = tested on: NCI-H292 cells; conditions: 1 µM for 48h; ref Matsuyama et al., 2018; cited from earlier work
[13] = tested on: primary human nasal epithelial cells; design: method as in Uchenna Agu et al., 1999; conditions: 10^-5 and 10^-3 M for 30-45 min; ref Uchenna Agu et al., 1999; cited from earlier work
[14] = tested on: 16HBE14 o^− cells; conditions: cited from earlier work
[15] = 30 min/day exposure, day 12, High 1 concentration (third of the tested concentrations), average ± standard deviation
[16] = 30 min/day exposure, day 12, Low concentration (first of the tested concentrations), average ± standard deviation
[17] = 30 min/day exposure, day 12, Medium concentration (second of the tested concentrations), average ± standard deviation

Compound: CCCCc1oc2ccccc2c1C(=O)c1cc(I)c(OCCN(CC)CC)c(I)c1 [Amiodarone, Amiodarone hydrochloride]
- Cytokines/chemokines modulated (in words) ([1]; EpiAlveolar, Laboratory 1): upregulated levels of ICAM-1
- MinPoD ([1]; Day 8): 1.317 μg/cm2
- MinPoD ([1]; Day 12): 0.971 μg/cm2
- Cytokines/chemokines modulated (in words) ([2]; EpiAlveolar, Laboratory 2): upregulated levels of ICAM-1; also recorded: downregulated levels of MMP-1 and MMP-2
- MinPoD ([2]; Day 4, biomarker MMP-1): 6.9528 μg/cm2
- MinPoD ([2]; Day 8, biomarker ICAM-1): 5.203 μg/cm2
- MinPoD ([2]; Day 12, biomarker ICAM-1): 5.033 μg/cm2
- MinPoD ([3]; Day 4): 0.008474 μg/cm2
- MinPoD ([3]; Day 8): 0.008494 μg/cm2
- MinPoD ([3]; Day 12): 0.00835 μg/cm2
- BER_min ([4]; Day 4, EpiAlveolar™ model Laboratory-2): 3.4764
- BER_min ([4]; Day 4, Transcriptomics): 0.004237
- BER_min ([4]; Day 8, EpiAlveolar™ model Laboratory-1): 0.6586
- BER_min ([4]; Day 8, EpiAlveolar™ model Laboratory-2): 2.602
- BER_min ([4]; Day 8, Transcriptomics): 0.004247
- BER_min ([4]; Day 12, EpiAlveolar™ model Laboratory-1): 0.4855
- BER_min ([4]; Day 12, EpiAlveolar™ model Laboratory-2): 2.516
- BER_min ([4]; Day 12, Transcriptomics): 0.004174
- Patients developing Amiodarone-induced pulmonary fibrosis following typical Amiodarone pneumonitis [5]: 5%–7%
- Risk ([6]; Scenario Plasma): High
- Risk classification ([6]; per benchmark chemical-exposure scenario (product and exposure scenario of the same line), based on historical safety decisions, ref References column of Table 3): High
- Histological changes compared to vehicle and control groups (in words) [7]: changes were not observed

Compound: IL-13: goblet cell hyper-, metaplasia agent used as positive control at 10 ng/mL
- Increase in cells expressing Muc5AC protein compared to unexposed tissues ([8]; positive control IL-13 at 10 ng/mL): 4 fold
- % of Muc5AC area ([8]; positive controls via liquid basal exposure, 30 min/day column, day 12, average ± standard deviation): 26.35 ± 3.34%

Compound: O=c1ccc2ccccc2o1 [Coumarin]
- MinPoD ([9]; Day 8, biomarker Mucins): 6.056 μg/cm2
- MinPoD ([9]; Day 12, biomarker Mucins): 4.8708 μg/cm2
- % of Muc5AC area [8, 15]: 3.29 ± 0.36%
- % of Muc5AC area [8, 16]: 5.09 ± 0.57%
- % of Muc5AC area [8, 17]: 6.83 ± 1.07%
- % of Muc5AC area ([8]; 6 h/day exposure, day 12, single tested concentration, average ± standard deviation): 2.85 ± 0.43%
- BER_min ([10]; Scenario1, Day 8): 30691.6
- BER_min ([10]; Scenario1, Day 12): 24110.2

Compound: CC(C)NCC(O)c1ccc(O)c(O)c1 (stereo not drawn) [Isoproterenol, Isoproterenol hydrochloride]
- Increase in cells expressing Muc5AC protein ([8]; 50 μM): 2.5 fold
- Increase in cells expressing Muc5AC protein ([8]; 100 μM): 3 fold
- % of Muc5AC area [8, 15]: 18.91 ± 3.09%
- % of Muc5AC area [8, 16]: 8.78 ± 1.62%
- % of Muc5AC area [8, 17]: 15.53 ± 1.41%
- Cytokines/chemokines modulated (in words) [11]: downregulation of MMP-7 only
- MUC5AC mRNA expression [12]: significant increase in MUC5AC mRNA expression
- CBF [13]: maximally and irreversibly increased ciliary CBF
- IL-8 levels ([14]; 1-30 nM for 18h, 16HBE cells, ref Lindén, 1996): IL-8 levels were also increased
- IL-6 and IL-8 release ([14]; 10-100 nM for 24h, ref Oehme et al., 2015): significant increase of IL-6 and IL-8 release
